Measured values taken from patent US11020415B2, “Use of albiflorin in preparation of products for improving function of intestinal flora system” (priority 2016, dated 2021).

Key:
[1] = target: cannabinoid receptor CB2 (Homo sapiens, UniProt P34972); experiment: Cannabinoid receptor CB2 activity (stated, no method); conditions: stated as finding of the invention's research; no data or method printed
[2] = system: intestinal flora in stressed rats; experiment: Targeted metabolomics of intestinal flora metabolism in chronic unpredictable mild stress (CUMS) model rats (PLS-DA, VIP analysis); type: in vivo, rat
Procedure: We established a chronic unpredictable mild stress (CUMS) model of rats, and used a new generation of targeted metabolomics method to study the metabolic function of intestinal flora in stressed rats.
(§1) We further administered the stressed model rats an albiflorin treatment for 7 consecutive days at each dose of 7 mg/k& for each treatment. 7 days later, we used metabolomics and a 16sDNA high-throughput metagenomic sequencing technology to re-evaluate the function and composition of intestinal flora in the rats. […] This was consistent with the results of analysis of flora composition.
As a positive drug, fluoxetine was continuously administered for 7 days at each dose of 10 mg/kg/d.

[3] = system: intestinal flora in stressed rats; experiment: High-throughput 16s metagenomic sequencing of intestinal flora composition in CUMS model rats (cluster analysis); type: in vivo, rat; conditions: albiflorin 7 days
Procedure: as §1
FIG. 5 is a graph showing the cluster analysis of intestinal flora composition correlation.

[4] = after 7 days of administration of albiflorin

cannabinoid receptor CB2, sequence (P34972 whole entry): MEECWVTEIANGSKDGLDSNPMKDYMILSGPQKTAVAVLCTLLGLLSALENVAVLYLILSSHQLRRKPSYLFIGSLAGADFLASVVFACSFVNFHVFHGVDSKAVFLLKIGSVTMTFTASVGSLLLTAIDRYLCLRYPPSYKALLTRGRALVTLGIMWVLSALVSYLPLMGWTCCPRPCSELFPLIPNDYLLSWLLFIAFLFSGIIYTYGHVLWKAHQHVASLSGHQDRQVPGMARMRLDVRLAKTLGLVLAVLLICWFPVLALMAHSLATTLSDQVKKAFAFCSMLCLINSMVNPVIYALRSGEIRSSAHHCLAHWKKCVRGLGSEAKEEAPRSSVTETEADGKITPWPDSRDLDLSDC

| Structure (SMILES) | Action at cannabinoid receptor CB2 [1] | Amounts of cholic acid, amino acids and vitamins (intestinal flora metabolites) compared with the depression group [2, 4] | Overall metabolism of intestinal flora compared with the depression group (VIP analysis) [2, 4] | Metabolism of intestinal flora relative to the normal group (PLS-DA multiple comparative analysis of metabolomics data) ([2]; albiflorin 7 consecutive days, 7 mg/k&, FIG. 1) | Amount of probiotic firmicutes, especially lactic acid bacteria, compared with the stressed rat model group [3] | Intestinal flora composition versus blank group (Control), cluster analysis [3] | Metabolism of rat intestinal flora relative to the normal state (multivariable PLS-DA analysis) ([2]; fluoxetine 7 days, 10 mg/kg/d, FIG. 6) |
| --- | --- | --- | --- | --- | --- | --- | --- |
| C[C@]12C[C@@H](O)[C@@H]3C[C@@]1(O[C@@H]1O[C@H](CO)[C@@H](O)[C@H](O)[C@H]1O)[C@@]3(COC(=O)c1ccccc1)C(=O)O2 [albiflorin] | agonist | increased | significantly improved | almost completely overlapped with the normal group | significantly increased | no statistical difference (P>0.05) | – |
| CNCCC(Oc1ccc(C(F)(F)F)cc1)c1ccccc1 (stereo not shown) [fluoxetine, reference compound] | – | – | – | – | – | – | deviated the metabolism of rat intestinal flora more from the normal state |
